Assay: solvent given as SMILES

Which results are given for `O=C(O)c1c2ccccc2nc2ccccc12`?
absorption maximum (in C1CCOC1): 360 nm; absorption maximum (in C1COCCO1): 362 nm; absorption maximum (in CC#N): 354 nm; absorption maximum (in CCCCCO): 370 nm; absorption maximum (in CCCCO): 370 nm; absorption maximum (in CCCO): 368 nm; absorption maximum (in CCO): 369 nm; absorption maximum (in CO): 356 nm; absorption maximum (in COCCOC): 360 nm; absorption maximum (in ClC(Cl)Cl): 362 nm; absorption maximum (in ClCCl): 362 nm; absorption maximum (in OCCO): 356 nm

Which absorption maximum (in C1CCOC1) does the source give for `CCOC(=O)COc1ccc(/C=C/c2cc(C)c3n2[B-](F)(F)[N+]2=C(c4[nH]c(C)cc4C)c4ccccc4C2=C3)cc1` here?
Its absorption maximum is 679 nm.

What about the absorption maximum (in CC#N) of the same molecule?
Its absorption maximum is 670 nm.

What about the absorption maximum (in CCCCCC) of the same molecule?
Its absorption maximum is 679 nm.

What about the absorption maximum (in CO) of the same molecule?
The absorption maximum was 671 nm.

What about the absorption maximum (in Cc1ccccc1) of the same molecule?
The absorption maximum was 678 nm.

And the absorption maximum (in ClCCl)?
Its absorption maximum is 680 nm.

With `Cc1ccc([C@@H]2C[C@](O)(c3ccccn3)C[C@](O)(c3ccccn3)[C@H]2C(=O)c2ccc(N(c3ccccc3)c3ccccc3)cc2)cc1` as the molecule, how does the absorption maximum (in C1CCOC1) read?
The absorption maximum was 366 nm.

What about the absorption maximum (in CC#N) of the same molecule?
The absorption maximum was 364 nm.

And the absorption maximum (in CCO)?
Its absorption maximum is 366 nm.

And the absorption maximum (in CCOC(C)=O)?
Its absorption maximum is 366 nm.

What about the absorption maximum (in CN(C)C=O) of the same molecule?
The absorption maximum was 360 nm.

And the absorption maximum (in ClCCl)?
The absorption maximum was 372 nm.

And the absorption maximum (in c1ccccc1)?
Its absorption maximum is 370 nm.

With `Cc1nn(-c2ccccc2)c2c1c(=O)oc1ccc(-n3c4ccccc4c4cc(-n5c6ccccc6c6ccccc65)ccc43)cc12` as the molecule, how does the absorption maximum (in Cc1ccccc1) read?
Its absorption maximum is 342 nm.

With `Cc1cc(/N=C/c2cc(S(=O)(=O)[O][Na])ccc2O)c(/N=C/c2cc(S(=O)(=O)[O][Na])ccc2O)cc1C` as the molecule, how does the absorption maximum (in O) read?
Its absorption maximum is 371 nm.

With `N#CC(C#N)=C(/C=C/c1cn(-c2ccccc2)nc1-c1ccccc1)c1ccccc1` as the molecule, how does the absorption maximum (in C1CCOC1) read?
The absorption maximum was 402 nm.

And the absorption maximum (in C1COCCO1)?
Its absorption maximum is 399 nm.

What about the absorption maximum (in CCO) of the same molecule?
The absorption maximum was 402 nm.

And the absorption maximum (in CCOC(C)=O)?
Its absorption maximum is 399 nm.

What about the absorption maximum (in CN(C)C=O) of the same molecule?
The absorption maximum was 405 nm.

What about the absorption maximum (in CO) of the same molecule?
The absorption maximum was 397 nm.

And the absorption maximum (in CS(C)=O)?
Its absorption maximum is 409 nm.

What about the absorption maximum (in Cc1ccccc1) of the same molecule?
Its absorption maximum is 405 nm.

What about the absorption maximum (in ClC(Cl)Cl) of the same molecule?
Its absorption maximum is 406 nm.

What about the absorption maximum (in ClCCl) of the same molecule?
The absorption maximum was 403 nm.

Which absorption maximum (in C1CCOC1) does the source give for `CCCCCCCCCCn1nnc(-c2ccc(C#Cc3ccc(C#Cc4ccc(-c5nnn(CCCCCCCCCC)n5)cc4)c4nc5c6ccccc6c6ccccc6c5nc34)cc2)n1` here?
Its absorption maximum is 428 nm.

What about the absorption maximum (in Cc1ccccc1) of the same molecule?
The absorption maximum was 428 nm.

And the absorption maximum (in ClCCl)?
The absorption maximum was 428 nm.

For `F[B-]1(F)n2cccc2C(c2ccccc2)=C2C=CC=[N+]21`, which absorption maximum (in Cc1ccccc1) is on record?
Its absorption maximum is 503 nm.

And the absorption maximum (in ClCCl)?
The absorption maximum was 500 nm.

With `Cc1ccc(C2=C3C=CC4=[N+]3[P-](=O)(=O)n3c2ccc3-c2ccc([nH]2)/C(c2ccc(C)cc2)=c2/cc/c(o2)=C(\c2ccc(C)cc2)c2ccc4[nH]2)cc1` as the molecule, how does the absorption maximum (in ClC(Cl)Cl) read?
Its absorption maximum is 708 nm.

Which results are given for `CCCCN1C(=S)c2cccc3c(N(C)C)ccc(c23)C1=S`?
absorption maximum (in CC#N): 571 nm; absorption maximum (in CS(C)=O): 588 nm; absorption maximum (in Cc1ccccc1): 536 nm

With `CC[N+]1=C(/C=C/C=C/C=C/C=C2/N(CCCCCC(=O)O)c3ccccc3C2(C)C)C(C)(C)c2cc(S(=O)(=O)[O-])ccc21` as the molecule, how does the absorption maximum (in CO) read?
Its absorption maximum is 751 nm.

And the absorption maximum (in O)?
The absorption maximum was 745 nm.

With `CC(=O)c1c2c(cc3cc(N(C)C)ccc13)CCC2` as the molecule, how does the absorption maximum (in C1CCCCC1) read?
Its absorption maximum is 363 nm.

And the absorption maximum (in C1CCOC1)?
The absorption maximum was 370 nm.

And the absorption maximum (in C1COCCO1)?
The absorption maximum was 370 nm.

What about the absorption maximum (in CC#N) of the same molecule?
The absorption maximum was 370 nm.

What about the absorption maximum (in CCO) of the same molecule?
Its absorption maximum is 374 nm.

And the absorption maximum (in CS(C)=O)?
Its absorption maximum is 374 nm.

And the absorption maximum (in Cc1ccccc1)?
The absorption maximum was 368 nm.

What about the absorption maximum (in ClC(Cl)Cl) of the same molecule?
Its absorption maximum is 373 nm.

What about the absorption maximum (in ClCCl) of the same molecule?
Its absorption maximum is 372 nm.

For `Cc1cccc2nc3[nH]c(=O)[nH]c(=O)c3nc12`, which absorption maximum (in CC#N) is on record?
Its absorption maximum is 380 nm.

For `N#Cc1c(-n2nnc3cc(Cl)ccc32)n([C@H]2C[C@H](O)[C@@H](CO)O2)c2ncnc(N)c12`, which absorption maximum (in CO) is on record?
The absorption maximum was 276 nm.

With `CC[N+]1(CC)CN2C(=N1)C(C(=O)O)=Cc1c(OC)ccc(OC)c12` as the molecule, how does the absorption maximum (in O) read?
The absorption maximum was 368 nm.

Which absorption maximum (in ClC(Cl)Cl) does the source give for `CN1C(=CC2=C([O-])C(=Cc3sc4ccccc4[n+]3C)C2=C(C#N)C#N)Sc2ccccc21` here?
Its absorption maximum is 703 nm.

Which absorption maximum (in ClC(Cl)Cl) does the source give for `N#CC1=CC=CC(C#N)=P1(c1ccccc1)c1ccccc1` here?
Its absorption maximum is 458 nm.

With `C(=C\c1ccc(-c2nnc(-c3ccc(/C=C/c4ccc(-c5nc(-c6ccccc6)c(-c6ccccc6)[nH]5)cc4)cc3)o2)cc1)/c1ccc(-c2nc(-c3ccccc3)c(-c3ccccc3)[nH]2)cc1` as the molecule, how does the absorption maximum (in C1CCOC1) read?
Its absorption maximum is 396 nm.

What about the absorption maximum (in CC#N) of the same molecule?
The absorption maximum was 391 nm.

What about the absorption maximum (in CN(C)C=O) of the same molecule?
The absorption maximum was 397 nm.

What about the absorption maximum (in Cc1ccccc1) of the same molecule?
The absorption maximum was 397 nm.

With `O=C(O)COc1cccc(-c2c3nc(cc4ccc([nH]4)c(-c4cccc(OCC(=O)O)c4)c4nc(cc5ccc2[nH]5)CC4)CC3)c1` as the molecule, how does the absorption maximum (in CS(C)=O) read?
Its absorption maximum is 736 nm.

What does the source list for `O=[N+]([O-])c1ccc[nH]1`?
absorption maximum (in CO): 336 nm; absorption maximum (in O): 350 nm

With `C=CCNc1ccc2ccc3oc4cc(=[N+](C)C)ccc-4nc3c2c1` as the molecule, how does the absorption maximum (in CC#N) read?
The absorption maximum was 569 nm.

What about the absorption maximum (in CCO) of the same molecule?
Its absorption maximum is 572 nm.

What about the absorption maximum (in ClCCl) of the same molecule?
Its absorption maximum is 582 nm.

What about the absorption maximum (in O) of the same molecule?
The absorption maximum was 552 nm.

Which absorption maximum (in CC#N) does the source give for `Cc1cc(O)c(C(=O)/C=C/c2ccccc2[N+](=O)[O-])c(=O)o1` here?
The absorption maximum was 352 nm.

What about the absorption maximum (in ClCCl) of the same molecule?
The absorption maximum was 365 nm.

What does the source list for `O=Cc1cc(C=O)c2ccc3c(N4CCCCC4)cc(N4CCCCC4)c4ccc1c2c43`?
absorption maximum (in C1COCCO1): 512 nm; absorption maximum (in CC#N): 525 nm; absorption maximum (in CC(C)=O): 521 nm; absorption maximum (in CCCCCC): 498 nm; absorption maximum (in CCO): 522 nm; absorption maximum (in CCOC(C)=O): 514 nm; absorption maximum (in CO): 523 nm; absorption maximum (in CS(C)=O): 535 nm; absorption maximum (in Cc1ccccc1): 516 nm; absorption maximum (in ClCCl): 534 nm

With `Cc1ccc(C2=C3C=CC([Te]c4ccccc4)=[N+]3[B-](F)(F)n3c([Te]c4ccccc4)ccc32)cc1` as the molecule, how does the absorption maximum (in C1CCOC1) read?
Its absorption maximum is 620 nm.

For `COc1ccc(-c2nc(/C(C#N)=C/c3ccc(C#N)cc3)sc2-c2ccc(OC)cc2)cc1`, which absorption maximum (in CC#N) is on record?
The absorption maximum was 407 nm.

Which absorption maximum (in C1CCOC1) does the source give for `CCOC(=O)/C(C#N)=C\c1ccc2c(c1)c1ccccc1n2-c1ccc(C)cc1` here?
The absorption maximum was 390 nm.

What about the absorption maximum (in CC#N) of the same molecule?
The absorption maximum was 389 nm.

What about the absorption maximum (in CC(C)=O) of the same molecule?
The absorption maximum was 388 nm.

What about the absorption maximum (in CCOC(C)=O) of the same molecule?
Its absorption maximum is 400 nm.

What about the absorption maximum (in CO) of the same molecule?
Its absorption maximum is 391 nm.

What about the absorption maximum (in CS(C)=O) of the same molecule?
Its absorption maximum is 397 nm.

What about the absorption maximum (in Cc1ccccc1) of the same molecule?
Its absorption maximum is 396 nm.

And the absorption maximum (in ClC(Cl)Cl)?
Its absorption maximum is 389 nm.

Which absorption maximum (in CO) does the source give for `CC1(C)C(/C=C/C2=C(Cl)C(=C/C=C3/N(Cc4ccc(F)cc4)c4ccccc4C3(C)C)/CCC2)=[N+](Cc2ccc(F)cc2)c2ccccc21` here?
Its absorption maximum is 784 nm.

Which results are given for `CCCCCCC(CCCCCC)N1C(=O)c2cccc3c(-c4ccccc4)ccc(c23)C1=O`?
absorption maximum (in CCCCCC): 342.2 nm; absorption maximum (in CCCCCCCCCCCCCC): 343.4 nm; absorption maximum (in CCCCCCCCCCCO): 353.4 nm; absorption maximum (in CCCCO): 355.2 nm; absorption maximum (in CN(C)C=O): 355.2 nm; absorption maximum (in Cc1ccccc1): 346.8 nm; absorption maximum (in ClC(Cl)Cl): 355.4 nm

With `CCCCCOc1cc2oc(=O)c3c4ccc(N(c5ccccc5)c5ccccc5)cc4c4ccc5cccc6c(c1)c2c3c4c56` as the molecule, how does the absorption maximum (in C1CCOC1) read?
The absorption maximum was 476 nm.

For `COc1ccc(C2=C/C(=C\c3ccccc3)C(=O)O2)cc1OC`, which absorption maximum (in C1COCCO1) is on record?
The absorption maximum was 406 nm.

For `COc1ccc(-c2ccc3c(c2)[Si](C)(C)c2cc(-c4ccc(OC)cc4)ccc2C=C3)cc1`, which absorption maximum (in ClCCl) is on record?
The absorption maximum was 385 nm.

Which absorption maximum (in CC#N) does the source give for `CC1=C2C3=C(CCc4ccccc43)C(C)=[N+]2[B-](F)(F)n2c(C)c3c(c21)-c1ccccc1CC3` here?
Its absorption maximum is 559 nm.

For `N#Cc1nc(N(Cc2ccccc2I)Cc2ccccc2I)c(C#N)nc1N(Cc1ccccc1I)Cc1ccccc1I`, which absorption maximum (in ClC(Cl)Cl) is on record?
Its absorption maximum is 487 nm.

For `CCCCn1c(-c2ccc(-c3ccc(-c4ccc(-c5n(CCCC)c6cc(C)ccc6[n+]5CCCC)cc4)cc3)cc2)[n+](CCCC)c2ccc(C)cc21`, which absorption maximum (in O) is on record?
Its absorption maximum is 304 nm.

With `CC(C)(C)c1cc(-c2ccc(-c3cccs3)s2)c2c(c1)c1cc(C(C)(C)C)cc(-c3ccc(-c4cccs4)s3)c1n2-c1ccc(-c2cccs2)s1` as the molecule, how does the absorption maximum (in ClCCl) read?
Its absorption maximum is 340 nm.

— the Deep4Chem optical property database
